Measurements from BindingDB's records for doi:10.1016/S0960-894X(00)80339-X (1993).

Target: Squalene monooxygenase (Sus scrofa)
Test: Inhibitory concentration at which 50% decrease in the activity of Squalene epoxidase in pig liver microsomes

With `CC(C)=CCC/C(C)=C/CC/C(C)=C/CC/C=C(\C)CC/C=C(\C)CC/C=C/[N+](=O)[O-]` [(1E,5E,9E,13E,17E)-5,9,14,18,22-Pentamethyl-1-nitro-tricosa-1,5,9,13,17,21-hexaene] the IC50 was > 400 µM.
In the case of `CC(C)=CCC/C(C)=C/CC/C(C)=C/CC/C=C(\C)CC/C=C(\C)CCCN(C)O` [N-Methyl-N-((4E,12E,16E,20E)-4,8,13,17,21-pentamethyl-docosa-4,8,12,16,20-pentaenyl)-hydroxylamine], the IC50 is reported as 13 µM.
